Assay results published in the supplement of paper PMC10307832.

What was measured:
Test in all cases: relative viability (nuclei count vs DMSO), 5 days (fraction); higher = more cells survive
Ibrutinib + Lapatinib = compound: C=CC(=O)N1CCC[C@@H](n2nc(-c3ccc(Oc4ccccc4)cc3)c3c(N)ncnc32)C1 [Ibrutinib] + CS(=O)(=O)CCNCc1ccc(-c2ccc3ncnc(Nc4ccc(OCc5cccc(F)c5)c(Cl)c4)c3c2)o1 [Lapatinib] (partner 2 µM)
Method in brief: (§1)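 Medians of duplicate plates are given as relative viability. That measure is the nuclei count in treated wells divided by the count in vehicle wells. Counts were taken on 4× images of lung cancer cell lines in 1536-well plates, 5 days after pin-tool dosing the day after seeding with one drug alone or a fixed anchor-drug dose plus five library-drug doses (not always all listed) in √10 steps.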

PAC-1 + Vorinostat = compound: C=CCc1cccc(/C=N/NC(=O)CN2CCN(Cc3ccccc3)CC2)c1O [PAC-1] + O=C(CCCCCCC(=O)Nc1ccccc1)NO [Vorinostat] (partner 1 µM)
Method in brief: as §1

BMX-IN-1 + Decitabine = compound: C=CC(=O)Nc1cc(-n2c(=O)ccc3cnc4ccc(-c5ccc(NS(C)(=O)=O)cc5)cc4c32)ccc1C [BMX-IN-1] + Nc1ncn([C@H]2C[C@H](O)[C@@H](CO)O2)c(=O)n1 [Decitabine] (partner 2 µM)
Method in brief: as §1

BMX-IN-1 + Tozasertib = compound: C=CC(=O)Nc1cc(-n2c(=O)ccc3cnc4ccc(-c5ccc(NS(C)(=O)=O)cc5)cc4c32)ccc1C [BMX-IN-1] + Cc1cc(Nc2cc(N3CCN(C)CC3)nc(Sc3ccc(NC(=O)C4CC4)cc3)n2)n[nH]1 [Tozasertib] (partner 0.1 µM)
Method in brief: as §1

| Cell Line | relative viability (Ibrutinib + Lapatinib; first compound 0.005 µM) | relative viability (Ibrutinib + Lapatinib; first compound 0.01581 µM) | relative viability (Ibrutinib + Lapatinib; first compound 0.05 µM) | relative viability (Ibrutinib + Lapatinib; first compound 0.1581 µM) | relative viability (Ibrutinib + Lapatinib; first compound 0.5 µM) | relative viability (PAC-1 + Vorinostat; first compound 0.02 µM) | relative viability (PAC-1 + Vorinostat; first compound 0.06325 µM) | relative viability (PAC-1 + Vorinostat; first compound 0.2 µM) | relative viability (PAC-1 + Vorinostat; first compound 2 µM) | relative viability (BMX-IN-1 + Decitabine; first compound 0.02 µM) | relative viability (BMX-IN-1 + Decitabine; first compound 0.2 µM) | relative viability (BMX-IN-1 + Decitabine; first compound 0.6325 µM) | relative viability (BMX-IN-1 + Decitabine; first compound 2 µM) | relative viability (BMX-IN-1 + Tozasertib; first compound 0.02 µM) | relative viability (BMX-IN-1 + Tozasertib; first compound 0.2 µM) | relative viability (BMX-IN-1 + Tozasertib; first compound 0.6325 µM) | relative viability (BMX-IN-1 + Tozasertib; first compound 2 µM) |
| --- | --- | --- | --- | --- | --- | --- | --- | --- | --- | --- | --- | --- | --- | --- | --- | --- | --- |
| HCC-78 | 1.27 | 0.812 | 0.57 | 0.398 | 0.399 | 0.379 | 0.416 | 0.435 | 0.431 | 0.743 | 0.766 | 0.789 | 0.802 | 0.472 | 0.474 | 0.52 | 0.36 |
| HCC-366 | 1.07 | 0.978 | 1.02 | 0.959 | 1.19 | 0.396 | 0.339 | 0.258 | 0.449 | 0.356 | 0.378 | 0.416 | 0.39 | 0.0929 | 0.0929 | 0.112 | 0.1 |
| HCC-827 | 0.169 | 0.206 | 0.208 | 0.174 | 0.173 | 0.903 | 0.857 | 0.752 | 0.841 | 0.27 | 0.31 | 0.342 | 0.292 | 0.524 | 0.434 | 0.415 | 0.442 |
| HOP-62 | 1.04 | 0.922 | 1.08 | 1.13 | 1.12 | 0.596 | 0.518 | 0.473 | 0.655 | 0.214 | 0.255 | 0.26 | 0.237 | 0.431 | 0.413 | 0.388 | 0.373 |
| IA-LM | 0.792 | 0.827 | 0.592 | 1.1 | 0.814 | 1.15 | 0.915 | 0.879 | 0.961 | – | – | – | – | – | – | – | – |
| LC-2-ad | 0.938 | 0.577 | 0.972 | 0.911 | 0.968 | 0.743 | 0.632 | 0.691 | 0.698 | 0.836 | 0.938 | 0.889 | 0.733 | 0.408 | 0.501 | 0.394 | 0.214 |
| LCLC-97TM1 | 0.69 | 0.913 | 1.41 | – | 0.931 | 0.776 | 0.805 | – | 0.761 | 0.259 | 0.224 | 0.208 | 0.264 | 0.203 | 0.274 | 0.289 | 0.203 |
| LCLC-103H | – | – | – | – | – | 0.854 | 0.864 | 0.759 | 0.826 | 0.795 | 0.782 | 0.714 | 0.689 | 0.605 | 0.494 | 0.559 | 0.485 |
| LK-2 | 0.602 | 0.93 | 0.956 | 0.877 | 0.769 | 0.317 | 0.306 | 0.301 | 0.58 | 0.262 | 0.326 | 0.269 | 0.335 | 0.223 | 0.173 | 0.161 | 0.184 |
| LOU-NH91 | 0.638 | 0.786 | 0.774 | 0.737 | 0.694 | 0.876 | 0.937 | 0.897 | 0.887 | – | 0.799 | 0.842 | 0.828 | 0.829 | – | 0.715 | 0.656 |
| NCI-H441 | – | – | – | – | – | 0.87 | 1.05 | 0.82 | 0.761 | 0.256 | 0.246 | 0.321 | 0.233 | 0.58 | 0.873 | 0.761 | 0.846 |
| NCI-H522 | – | – | – | – | – | 0.902 | 0.846 | 0.941 | 0.862 | 0.692 | 0.633 | 0.725 | 0.624 | 0.573 | 0.666 | 0.605 | 0.532 |
| NCI-H1299 | 0.973 | 0.984 | 0.977 | 0.979 | 0.969 | – | – | – | – | – | – | – | – | – | – | – | – |
| NCI-H1563 | 0.867 | 0.866 | 0.959 | 0.945 | 1.02 | – | – | – | – | – | – | – | – | – | – | – | – |
| NCI-H1623 | – | – | – | – | – | – | – | – | – | – | – | – | – | 0.494 | 0.465 | 0.447 | 0.394 |
| NCI-H1648 | – | – | – | – | – | 0.49 | 0.42 | 0.431 | 0.463 | 0.511 | 0.467 | 0.616 | 0.506 | 0.447 | 0.47 | 0.426 | 0.459 |
| NCI-H1703 | – | – | 1.06 | 1.16 | 0.684 | – | – | – | – | – | – | – | – | – | – | – | – |
| NCI-H1792 | 0.907 | 0.896 | 0.913 | 0.73 | 0.912 | – | – | – | – | 0.539 | 0.615 | 0.525 | 0.568 | – | – | – | – |
| NCI-H2228 | 0.746 | 0.974 | 0.833 | 0.884 | 1.1 | 0.699 | 0.932 | 0.546 | 0.504 | – | – | – | – | 0.243 | 0.245 | 0.243 | 0.224 |
| NCI-H2342 | – | – | – | – | – | 0.733 | 0.659 | 0.802 | 0.739 | 0.698 | 0.751 | 0.748 | 0.742 | 0.454 | 0.526 | 0.494 | 0.422 |
| SW 900 | – | – | – | – | – | – | 0.41 | 0.494 | 0.553 | 0.564 | 0.51 | 0.461 | 0.539 | 0.425 | 0.682 | 0.606 | 0.679 |
